Patent US11702402B2, “Small molecules that block proteasome-associated ubiquitin receptor RPN13 function and uses thereof” (DANA-FARBER CANCER INSTITUTE, INC., priority 2018, dated 2023)

Legend:
MM.1S cells = test: Annexin V/PI apoptosis assay in MM.1S cells; type: cell-based, Human; conditions: 200 nM, 16 hours
Description: FIGS. 22A to 22F show the mechanisms of WL40-induced MM cell death. […] MM.1S cells were treated with DMSO control or WL40 (200 nM) for 16 hours, and then analyzed for apoptosis using Annexin V/PI double staining assay (mean±SD; n=3; p<0.001). FIG. 22B is an immunoblot of MM.1S and ANBL6.BR cells, which were treated with DMSO control or WL40 (200 nM for MM.1S; 1 μM for ANBL6.BR) for 16 hours; protein lysates were then subjected to the immunoblotting using antibodies against poly ADP ribose polymerase (PARP), caspase-3, caspase-7, caspase-8, caspase-9, or β-actin. FL, full length; CF, cleaved fragment. FIG. 22C is a bar graph measuring enzymatic activity. MM.1S cells were treated with DMSO control or WL40 (200 nM) for 12 hours, followed by the measurement of caspase-3, caspase-8, or caspase-9 enzymatic activity (mean±SD; n=3; p<0.0001). FIG. 22D is an immunoblot of MM.1S and ANBL6.BR cells, which were treated with DMSO control or WL40 (200 nM for MM.1S; 1 μM for ANBL6.BR) for 16 hours; protein lysates were then subjected to the immunoblotting using specific antibodies against Cyclin-B1, Cell Division Cycle 25C (CDC25C), Cell Division Cycle 2 (CDCl2), or β-actin. […]

[1] = test system: MM.1S cells co-cultured with patient pDCs; test: MM.1S co-culture with patient pDCs (WST); type: cell-based, Human; conditions: 48 hours
Description: The IC50 of WL40 for cell lines is shown.

`O=C1CCC(N2C(=O)c3cccc(NCCOCCOCCOCCC(=O)N[C@@H](Cc4ccccc4)C(=O)N4C/C(=C\c5ccc(Cl)c(Cl)c5)C(=O)/C(=C/c5ccc(Cl)c(Cl)c5)C4)c3C2=O)C(=O)N1` (some centres unmarked) [WL40] was tested, and the “apoptosis (Annexin V/PI)” value (MM.1S cells) was “increase in early- (Annexin V^+/PI^−) and late-stage (Annexin V^+/PI^+) apoptosis” and the “viability of MM cells in co-culture” value [1] was “dose-dependent decrease in the viability of MM cells”.
